Test results: patent US20220218852A1, “NOVEL RADIOLABELLED CXCR4-TARGETING COMPOUNDS FOR DIAGNOSIS AND THERAPY” (PROVINCIAL HEALTH SERVICES AUTHORITY, priority 2019, published 2022)
Like-named read-outs stand apart in the source and are kept apart here. Positions of bridges follow the written chain, without caps; N, C: chain ends. Non-standard residues stand in square brackets, D forms with d. Residues, ends and D or L forms follow the SMILES beside them. Groups on a side chain read outwards from the residue. Chains are numbered I, II in the order given. *: point of attachment. X5 = C[N+](C)(Cc1cn(CC(=O)*)nn1)C[B-](F)(F)F; 2Nal = N[C@@H](Cc1ccc2ccccc2c1)C(=O)O; X3 = C[N+](C)(CCCC(=O)*)C[B-](F)(F)F; Lys(iPr) = CC(C)NCCCC[C@H](N)C(=O)O

Legend:
[1] = biological target: T1, CXCR4 (Homo sapiens, UniProt P61073); test: Competition binding assay ([^125I]SDF-1α, CHO:CXCR4 cells); conditions: competitive binding vs [^125I]SDF-1α, read-out: IC50 (nM), binding affinity for CXCR4
T1 construct: expressed in transfected cells; host or cells: CHO:CXCR4 cells (gift from NIH); CHO:WT used as the control line
Description: The binding affinities of nonlabelled peptides for CXCR4 were determined using a competition binding assay using the CHO:CXCR4 cells. Briefly, CHO:CXCR4 cells (200,000 cells/well) were plated in a 24-well BioCoat™ Poly-D-Lysine Multiwell Plates (Corning) the previous night. The next day, each well was incubated with RPMI-1640 medium (Life Technologies Corporations) supplemented with 20 mM HEPES and 2 mg/mL BSA, [^125I]SDF-1α (0.01 nM, Perkin Elmer) and competing non-radioactive ligands ([…]) and incubated for 1-1.5 hours at 27° C. with moderate shaking. After incubation, the cells were washed with ice-cold PBS twice, trypsinized and counted on a Perkin Elmer WIZARD 2480 gamma counter. IC50 values were determined by a nonlinear regression analysis to fit a logistic equation to the competition data using GraphPad Prism 7.

[2] = biological target: T1, CXCR4; conditions: Peng et al. 2015; read-out: IC50, block SDF-1a binding to CXCR4; cited from earlier work

T1 sequence (P61073 whole entry): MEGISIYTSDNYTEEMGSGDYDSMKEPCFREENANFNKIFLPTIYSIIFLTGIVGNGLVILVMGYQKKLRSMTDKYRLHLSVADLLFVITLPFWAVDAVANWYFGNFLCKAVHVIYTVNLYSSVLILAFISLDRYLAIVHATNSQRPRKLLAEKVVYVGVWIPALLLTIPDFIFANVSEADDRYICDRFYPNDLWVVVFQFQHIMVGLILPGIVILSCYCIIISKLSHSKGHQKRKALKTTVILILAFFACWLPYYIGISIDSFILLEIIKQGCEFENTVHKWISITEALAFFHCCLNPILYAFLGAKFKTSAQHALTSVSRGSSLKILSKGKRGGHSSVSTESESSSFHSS

Compound | IC50 [1] [nM] | IC50 [2] [nM]
CC(C)NCCCC[C@@H]1NC(=O)[C@H](Cc2ccc(O)cc2)NC(=O)[C@H](Cc2ccccc2)NC(=O)CC[C@H](C(=O)N[C@@H](CCCCNC(C)C)C(=O)N[C@@H](CCCCNC(=O)[C@H](CCC(=O)O)NC(=O)[C@H](CCC(=O)O)NC(=O)[C@H](CCC(=O)O)NC(=O)[C@H](CCCCNC(=O)[C@H](CCC(=O)O)NC(=O)Cn2cc(C[N+](C)(C)C[B-](F)(F)F)nn2)NC(=O)[C@H](CCC(=O)O)NC(=O)Cn2cc(C[N+](C)(C)C[B-](F)(F)F)nn2)C(N)=O)NC(=O)CNC(=O)[C@H](Cc2ccc3ccccc3c2)NC(=O)[C@@H](CCCNC(=N)N)NC1=O [BL04] (I: FY[Lys(iPr)][dR][2Nal]G[dE][Lys(iPr)]K-NH2 / II: X5-EK([Glu-X5])EEE; amide I:9-II:C; lactam I:N-I:7) | 63 ± 9 | 
CC(C)NCCCC[C@@H]1NC(=O)[C@H](Cc2ccc(O)cc2)NC(=O)[C@H](Cc2ccccc2)NC(=O)CC[C@H](C(=O)N[C@@H](CCCCNC(C)C)C(=O)N[C@@H](CCCCNC(=O)[C@H](CCC(=O)O)NC(=O)[C@H](CCC(=O)O)NC(=O)[C@H](CCC(=O)O)NC(=O)CCC[N+](C)(C)C[B-](F)(F)F)C(N)=O)NC(=O)CNC(=O)[C@H](Cc2ccc3ccccc3c2)NC(=O)[C@@H](CCCNC(=N)N)NC1=O [BL08] (FY[Lys(iPr)][dR][2Nal]G[dE][Lys(iPr)]K([Glu-Glu-Glu-X3])-NH2; lactam N-7) | 11.6 ± 7 | 
CC(C)NCCCC[C@@H]1NC(=O)[C@H](Cc2ccc(O)cc2)NC(=O)[C@H](Cc2ccccc2)NC(=O)CC[C@H](C(=O)N[C@@H](CCCCNC(C)C)C(=O)N[C@@H](CCCCNC(=O)[C@H](CCC(=O)O)NC(=O)[C@H](CCC(=O)O)NC(=O)[C@H](CCC(=O)O)NC(=O)Cn2cc(C[N+](C)(C)C[B-](F)(F)F)nn2)C(N)=O)NC(=O)CNC(=O)[C@H](Cc2ccc3ccccc3c2)NC(=O)[C@@H](CCCNC(=N)N)NC1=O [BL09] (FY[Lys(iPr)][dR][2Nal]G[dE][Lys(iPr)]K([Glu-Glu-Glu-X5])-NH2; lactam N-7) | 13.4 ± 2.3 | 
cyclo[Phe-Tyr-Lys(iPr)-D-Arg-2-NaI-Gly-D-Glu]-Lys(iPr)-NH2 [LY2510924] |  | 0.079
